From publication PMC9090415, “Discovery of small molecule inhibitors of Plasmodium falciparum apicoplast DNA polymerase” (Journal of Enzyme Inhibition and Medicinal Chemistry, 2022)

Molecular target: P. falciparum apicoplast DNA polymerase (Pf-apPOL) (Plasmodium falciparum, UniProt Q8ILY1)
Assay: Fluorescence-based high-throughput DNA polymerase assay (molecular beacon), primary screen and dose-response
Format: biochemical
Settings: for DNA Pol: 90 min, 10 µM
Description: The HT assay employs a molecular beacon, a stem-loop DNA template with a Cy3 dye and the Black Hole Quencher on the 3′ and 5′ ends of the DNA, respectively. Pf-apPOL concentration is based on a calculated absorptivity of ε280 = 56750 M^−1 cm^−1. Reactions were carried out at 25 °C, using Corning 3575 […] (well-volume, 20 µL). Assays testing for compound inhibition composed of reaction buffer (pH 7.9 in 50 mM potassium acetate, 20 mM Tris-acetate and 10 mM magnesium acetate), Pf-apPOL (20 nM), DNA substrate (20 nM), dNTPs (6 µM), and compound (10 µM in DMSO). The DNA and nucleotide substrates (dNTPs) were at concentrations of 20 nM and 6 µM, respectively, in the assay. Pf-apPOL was incubated in the reaction buffer with dNTPs and the compound of interest (10 µM, in the assay) at 25 °C for 10 min. The DNA substrate was then added and the reaction was allowed to proceed for 90 min at 25 °C.
Each assay plate contained 16 negative controls (no Pf-apPOL, DMSO present) and 16 positive controls (Pf-apPOL present, no DMSO). The fluorescence of each well was determined using a BioTek Synergy Neo fluorescence plate reader using excitation and emission wavelengths of 555 and 570 nm, respectively.
In the above, Min is the average of fluorescence emission of the negative controls (substrate only), Max the average fluorescence emission from the positive controls (enzyme + substrate), and Test the emission from the assays in the presence of compounds (enzyme + compound + substrates). […] […] The IC50 of each compound was determined using Equation (2): (2) IC50= Vmax/(1+ (I/IC50)^n)
In the above, n measures cooperativity, with n > 1 indicating synergistic binding of more than a single molecule of the compound.
To identify apPOL inhibitors we utilised our previously developed high-throughput DNA polymerase assay. The HT assay is based on a molecular beacon DNA template that forms a stem-loop with a Cy3 dye and the Black Hole Quencher on the 3′ and 5′ ends of the DNA, respectively. DNA polymerase activity extends an annealed primer through the stem region, displacing the fluorophore from the quencher, thereby increasing its fluorescence (Figure 1(A)). The assay accurately recapitulates the kinetic behaviour of apPOL, as measured through more conventional low-throughput gel-based assays. The Z′ factor for the assay described here was 0.9 across all plates (data not shown).
Figure 1. High-throughput screening. (A) The fluorescent-based DNA polymerase assay used to screen the compound libraries. The DNA template strand is a hairpin loop with a primer annealed to the loop. The 3’ end of the primer is 11 bases away from the 6 bp duplex. Strand displacement activity of the DNA polymerase separates the Cy3 dye from the Black hole quencher leading to an increase in fluorescent signal. (B) The high-throughput assay workflow. The DNA polymerase is incubated with […] compound for 10 min prior to addition of the hairpin substrate. The reaction is quenched at 3 different time points and the fluorescent signal is measured and % inhibition is determined using the provided equation.

[1] = primary screen value of the 186 hits, unit not given

Chain of P. falciparum apicoplast DNA polymerase (Pf-apPOL) (Q8ILY1 entry or part of it): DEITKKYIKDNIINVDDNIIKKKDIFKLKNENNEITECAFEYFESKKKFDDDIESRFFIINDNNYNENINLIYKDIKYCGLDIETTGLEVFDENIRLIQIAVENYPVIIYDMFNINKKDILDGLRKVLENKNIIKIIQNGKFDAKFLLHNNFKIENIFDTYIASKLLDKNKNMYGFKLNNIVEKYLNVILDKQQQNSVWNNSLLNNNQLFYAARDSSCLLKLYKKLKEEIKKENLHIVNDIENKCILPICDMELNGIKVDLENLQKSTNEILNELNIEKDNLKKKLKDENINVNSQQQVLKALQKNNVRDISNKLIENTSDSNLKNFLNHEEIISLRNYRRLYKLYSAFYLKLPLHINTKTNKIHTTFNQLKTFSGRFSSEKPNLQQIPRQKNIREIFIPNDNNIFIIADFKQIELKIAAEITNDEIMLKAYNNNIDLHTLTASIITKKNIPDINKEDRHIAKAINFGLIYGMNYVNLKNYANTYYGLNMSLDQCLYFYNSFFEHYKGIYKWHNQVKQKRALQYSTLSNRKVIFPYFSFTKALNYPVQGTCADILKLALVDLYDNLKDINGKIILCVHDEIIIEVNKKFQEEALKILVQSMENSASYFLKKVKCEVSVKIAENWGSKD

Compound: COc1ccc(C)cc1NC(=O)Cn1ccc2c(=O)[nH]ccc21 [Molecule 15, COc1ccc(cc1NC(=O)Cn1ccc2c1cc[nH]c2=O)C]
- % inhibition Apo pol 10' (DRC-1, concentration 2.5): 1.7584%
- % inhibition Apo pol 10' (DRC-1, concentration 5): 31.9729%
- % inhibition Apo pol 10' (DRC-1, concentration 10): 59.9251%
- % inhibition Apo pol 10' (DRC-1, concentration 20): 81.9832%
- % inhibition Apo pol 10' (DRC-1, concentration 40): 82.3162%
- % inhibition Apo pol 10' (DRC-1, concentration 80): 74.4719%
- % inhibition Apol 90' (DRC-1, 90', concentration 2.5): -2.786%
- % inhibition Apol 90' (DRC-1, 90', concentration 5): 18.8368%
- % inhibition Apol 90' (DRC-1, 90', concentration 10): 46.9508%
- % inhibition Apol 90' (DRC-1, 90', concentration 20): 77.5716%
- % inhibition Apol 90' (DRC-1, 90', concentration 40): 84.7552%
- % inhibition Apol 90' (DRC-1, 90', concentration 80): 84.8173%
- % inhibition apPOL 180' (DRC-1, 180', concentration 2.5): -5.413%
- % inhibition apPOL 180' (DRC-1, 180', concentration 5): 6.847%
- % inhibition apPOL 180' (DRC-1, 180', concentration 10): 30.4146%
- % inhibition apPOL 180' (DRC-1, 180', concentration 20): 67.1672%
- % inhibition apPOL 180' (DRC-1, 180', concentration 40): 81.3984%
- % inhibition apPOL 180' (DRC-1, 180', concentration 80): 86.595%
- % inhibition Apo pol 5' (DRC-2, 5', concentration 2.5): 1.82%
- % inhibition Apo pol 5' (DRC-2, 5', concentration 5): 24%
- % inhibition Apo pol 5' (DRC-2, 5', concentration 10): 47%
- % inhibition Apo pol 5' (DRC-2, 5', concentration 20): 44%
- % inhibition Apo pol 5' (DRC-2, 5', concentration 40): 34%
- % inhibition Apo pol 5' (DRC-2, 5', concentration 80): 8%
- % inhibition Apol 40' (DRC-2, 40', concentration 2.5): 0.779%
- % inhibition Apol 40' (DRC-2, 40', concentration 5): 28%
- % inhibition Apol 40' (DRC-2, 40', concentration 10): 63%
- % inhibition Apol 40' (DRC-2, 40', concentration 20): 65%
- % inhibition Apol 40' (DRC-2, 40', concentration 40): 60%
- % inhibition Apol 40' (DRC-2, 40', concentration 80): 46%
- % inhibition ApPOL 90' (DRC-2, 90', concentration 2.5): -0.827%
- % inhibition ApPOL 90' (DRC-2, 90', concentration 5): 24%
- % inhibition ApPOL 90' (DRC-2, 90', concentration 10): 64%
- % inhibition ApPOL 90' (DRC-2, 90', concentration 20): 67%
- % inhibition ApPOL 90' (DRC-2, 90', concentration 40): 66%
- % inhibition ApPOL 90' (DRC-2, 90', concentration 80): 55%
- % inhibition apPOL 180' (DRC-2, 180', concentration 2.5): -8%
- % inhibition apPOL 180' (DRC-2, 180', concentration 5): 12%
- % inhibition apPOL 180' (DRC-2, 180', concentration 10): 58%
- % inhibition apPOL 180' (DRC-2, 180', concentration 20): 66%
- % inhibition apPOL 180' (DRC-2, 180', concentration 40): 72%
- % inhibition apPOL 180' (DRC-2, 180', concentration 80): 64%
- % inhibition Apo pol 5' (conc. 5, 5', DRC-2): 24%
- % inhibition ApPOL 90' (conc. 5, 90', DRC-2): 24%
- % inhibition ApPOL 90' (conc. 10, 90', DRC-2): 64%
- % inhibition apPOL 180' (conc. 20, 180', DRC-2): 66%
- % inhibition ApPOL 90' (conc. 40, 90', DRC-2): 66%
- % inhibition apPOL 180' (conc. 80, 180', DRC-2): 64%
- DNA Pol (primary screen value by plate and well): 73
- DNA Pol [1]: 73

Compound: O=c1[nH]c2ccc(Br)cc2c(-c2ccccc2)c1C1=NNC(c2ccco2)C1 (stereo not drawn) [KU0045540]
- % inhibition Apo pol 10' (DRC-1, concentration 2.5): 38.7065%
- % inhibition Apo pol 10' (DRC-1, concentration 5): 32.1153%
- % inhibition Apo pol 10' (DRC-1, concentration 10): 58.5243%
- % inhibition Apo pol 10' (DRC-1, concentration 20): 75.2705%
- % inhibition Apo pol 10' (DRC-1, concentration 40): 80.4182%
- % inhibition Apo pol 10' (DRC-1, concentration 80): 78.0702%
- % inhibition Apol 90' (DRC-1, 90', concentration 2.5): 12.887%
- % inhibition Apol 90' (DRC-1, 90', concentration 5): 9.899%
- % inhibition Apol 90' (DRC-1, 90', concentration 10): 32.8734%
- % inhibition Apol 90' (DRC-1, 90', concentration 20): 57.4465%
- % inhibition Apol 90' (DRC-1, 90', concentration 40): 76.3337%
- % inhibition Apol 90' (DRC-1, 90', concentration 80): 82.7097%
- % inhibition apPOL 180' (DRC-1, 180', concentration 2.5): 0.7615%
- % inhibition apPOL 180' (DRC-1, 180', concentration 5): -2.038%
- % inhibition apPOL 180' (DRC-1, 180', concentration 10): 16.3913%
- % inhibition apPOL 180' (DRC-1, 180', concentration 20): 40.539%
- % inhibition apPOL 180' (DRC-1, 180', concentration 40): 67.9853%
- % inhibition apPOL 180' (DRC-1, 180', concentration 80): 81.6451%
- % inhibition Apo pol 5' (DRC-2, 5', concentration 2.5 (unit not given)): 15%
- % inhibition Apo pol 5' (DRC-2, 5', concentration 20 (unit not given)): 65%
- % inhibition Apo pol 5' (DRC-2, 5', concentration 40 (unit not given)): 65%
- % inhibition Apol 40' (DRC-2, 40', concentration 2.5 (unit not given)): 15%
- % inhibition Apol 40' (DRC-2, 40', concentration 10 (unit not given)): 49%
- % inhibition Apol 40' (DRC-2, 40', concentration 20 (unit not given)): 77%
- % inhibition ApPOL 90' (DRC-2, 90', concentration 10 (unit not given)): 49%
- % inhibition ApPOL 90' (DRC-2, 90', concentration 20 (unit not given)): 77%
- % inhibition ApPOL 90' (DRC-2, 90', concentration 80 (unit not given)): 72%
- % inhibition apPOL 180' (DRC-2, 180', concentration 20 (unit not given)): 72%
- % inhibition Apo pol 5' (DRC-2, 5', concentration 2.5): 15%
- % inhibition Apo pol 5' (DRC-2, 5', concentration 5): 27%
- % inhibition Apo pol 5' (DRC-2, 5', concentration 10): 40%
- % inhibition Apo pol 5' (DRC-2, 5', concentration 20): 65%
- % inhibition Apo pol 5' (DRC-2, 5', concentration 40): 65%
- % inhibition Apo pol 5' (DRC-2, 5', concentration 80): 39%
- % inhibition Apol 40' (DRC-2, 40', concentration 2.5): 15%
- % inhibition Apol 40' (DRC-2, 40', concentration 5): 33%
- % inhibition Apol 40' (DRC-2, 40', concentration 10): 49%
- % inhibition Apol 40' (DRC-2, 40', concentration 20): 77%
- % inhibition Apol 40' (DRC-2, 40', concentration 40): 81%
- % inhibition Apol 40' (DRC-2, 40', concentration 80): 67%
- % inhibition ApPOL 90' (DRC-2, 90', concentration 2.5): 15%
- % inhibition ApPOL 90' (DRC-2, 90', concentration 2.5 (unit not given)): 15%
- % inhibition ApPOL 90' (DRC-2, 90', concentration 5): 31%
- % inhibition ApPOL 90' (DRC-2, 90', concentration 10): 49%
- % inhibition ApPOL 90' (DRC-2, 90', concentration 20): 77%
- % inhibition ApPOL 90' (DRC-2, 90', concentration 40): 83%
- % inhibition ApPOL 90' (DRC-2, 90', concentration 80): 72%
- % inhibition apPOL 180' (DRC-2, 180', concentration 2.5): 11%
- % inhibition apPOL 180' (DRC-2, 180', concentration 5): 22%
- % inhibition apPOL 180' (DRC-2, 180', concentration 10): 41%
- % inhibition apPOL 180' (DRC-2, 180', concentration 20): 72%
- % inhibition apPOL 180' (DRC-2, 180', concentration 40): 82%
- % inhibition apPOL 180' (DRC-2, 180', concentration 80): 75%
- DNA Pol [1]: 43
- DNA Pol (primary screen value, head "DNA Pol", unit not given): 43
